Experimental data reported in the NIST ThermoML archive (doi:10.1016/j.tca.2004.08.013).
Numbers after ± are expanded uncertainties.

Assay: xn = mol fraction of the nth substance listed
Settings: 101.3 kPa, Liquid

CCCN [propan-1-amine] + ClC(Cl)Cl
Settings	mass density, 303.15 K [kg/m3]	mass density, 313.15 K [kg/m3]	viscosity, 303.15 K [mPa·s]	viscosity, 313.15 K [mPa·s]
x1 = 0.01	1463.1 ± 1.3	1441.12 ± 1.3	0.523 ± 0.008	0.474 ± 0.007
x1 = 0.0207	1454.77 ± 1.3	1433.07 ± 1.3	0.526 ± 0.008	0.478 ± 0.007
x1 = 0.0296	1447.98 ± 1.3	1426.56 ± 1.2	0.529 ± 0.008	0.481 ± 0.007
x1 = 0.0426	1437.89 ± 1.3	1416.8 ± 1.2	0.533 ± 0.008	0.485 ± 0.007
x1 = 0.0491	1432.95 ± 1.3	1411.95 ± 1.2	0.536 ± 0.008	0.488 ± 0.007
x1 = 0.0595	1424.84 ± 1.2	1403.97 ± 1.2	0.539 ± 0.008	0.491 ± 0.007
x1 = 0.0689	1417.67 ± 1.2	1396.96 ± 1.2	0.542 ± 0.008	0.495 ± 0.007
x1 = 0.0796	1409.35 ± 1.2	1388.75 ± 1.2	0.544 ± 0.008	0.496 ± 0.007
x1 = 0.096	1396.86 ± 1.2	1376.41 ± 1.1	0.548 ± 0.008	0.5 ± 0.007

CCCCN(CCCC)CCCC [tributylamine] + ClC(Cl)Cl
Settings	mass density, 303.15 K [kg/m3]	mass density, 313.15 K [kg/m3]	viscosity, 303.15 K [mPa·s]	viscosity, 313.15 K [mPa·s]
x1 = 0.0102	1450.1 ± 1.3	1428.49 ± 1.3	0.533 ± 0.008	0.479 ± 0.007
x1 = 0.0205	1430.19 ± 1.3	1409.15 ± 1.2	0.545 ± 0.008	0.488 ± 0.007
x1 = 0.0308	1410.92 ± 1.2	1390.4 ± 1.2	0.557 ± 0.008	0.496 ± 0.007
x1 = 0.0404	1393.58 ± 1.2	1373.58 ± 1.1	0.569 ± 0.008	0.504 ± 0.008
x1 = 0.0505	1376.08 ± 1.2	1356.5 ± 1.1	0.583 ± 0.008	0.513 ± 0.008
x1 = 0.0598	1360.44 ± 1.1	1341.35 ± 1.1	0.593 ± 0.009	0.522 ± 0.008
x1 = 0.0695	1344.77 ± 1.1	1326.07 ± 1.1	0.606 ± 0.009	0.529 ± 0.008
x1 = 0.0799	1328.42 ± 1.1	1310.05 ± 1	0.615 ± 0.009	0.538 ± 0.008
x1 = 0.0856	1319.72 ± 1	1301.56 ± 1	0.621 ± 0.009	0.545 ± 0.008

CCN(CC)CC [triethylamine] + C1COCCO1
303.15 K
Settings	mass density [kg/m3]	viscosity [mPa·s]
x1 = 0.0138	1015.32 ± 0.55	1.059 ± 0.014
x1 = 0.0232	1010.65 ± 0.54	1.042 ± 0.014
x1 = 0.0349	1004.86 ± 0.53	1.018 ± 0.014
x1 = 0.0453	999.87 ± 0.52	0.998 ± 0.014
x1 = 0.0551	995.17 ± 0.52	0.98 ± 0.013
x1 = 0.0691	988.57 ± 0.52	0.955 ± 0.013
x1 = 0.0803	983.41 ± 0.52	0.932 ± 0.013
x1 = 0.0909	978.57 ± 0.52	0.914 ± 0.012
x1 = 0.1006	974.22 ± 0.52	0.899 ± 0.012
x1 = 0.1128	968.78 ± 0.52	0.877 ± 0.012

CCN(CC)CC [triethylamine] + CCC(C)=O
303.15 K
Settings	mass density [kg/m3]	viscosity [mPa·s]
x1 = 0.011	798.96 ± 0.69	0.362 ± 0.006
x1 = 0.0217	798.22 ± 0.69	0.36 ± 0.006
x1 = 0.0315	797.6 ± 0.69	0.357 ± 0.006
x1 = 0.0413	796.87 ± 0.69	0.355 ± 0.006
x1 = 0.0508	796.32 ± 0.69	0.353 ± 0.006
x1 = 0.0597	795.5 ± 0.69	0.351 ± 0.006
x1 = 0.0697	794.8 ± 0.69	0.347 ± 0.006
x1 = 0.0801	794.25 ± 0.69	0.344 ± 0.006
x1 = 0.0915	793.37 ± 0.69	0.341 ± 0.006
x1 = 0.1022	792.79 ± 0.69	0.338 ± 0.006

CCN(CC)CC [triethylamine] + CCCCOC(C)=O
303.15 K
Settings	mass density [kg/m3]	viscosity [mPa·s]
x1 = 0.0065	870.3 ± 0.61	0.641 ± 0.009
x1 = 0.0144	869.1 ± 0.61	0.638 ± 0.009
x1 = 0.0226	867.85 ± 0.61	0.631 ± 0.009
x1 = 0.0293	866.83 ± 0.61	0.628 ± 0.009
x1 = 0.0378	865.53 ± 0.61	0.623 ± 0.009
x1 = 0.0454	864.42 ± 0.61	0.618 ± 0.009
x1 = 0.0509	863.54 ± 0.61	0.613 ± 0.009
x1 = 0.0596	862.22 ± 0.61	0.607 ± 0.009
x1 = 0.0668	861.13 ± 0.61	0.603 ± 0.009
x1 = 0.0733	860.14 ± 0.61	0.599 ± 0.009

CCN(CC)CC [triethylamine] + CCOC(C)=O
303.15 K
Settings	mass density [kg/m3]	viscosity [mPa·s]
x1 = 0.0127	885.47 ± 0.59	0.395 ± 0.006
x1 = 0.0205	883.69 ± 0.59	0.389 ± 0.006
x1 = 0.0323	881 ± 0.59	0.386 ± 0.006
x1 = 0.0407	879.1 ± 0.59	0.382 ± 0.006
x1 = 0.0522	876.53 ± 0.6	0.379 ± 0.006
x1 = 0.0608	874.62 ± 0.6	0.376 ± 0.006
x1 = 0.0702	872.41 ± 0.6	0.374 ± 0.006
x1 = 0.0783	870.58 ± 0.6	0.371 ± 0.006
x1 = 0.09	867.91 ± 0.6	0.369 ± 0.006
x1 = 0.0996	866.05 ± 0.6	0.367 ± 0.006

CCN(CC)CC [triethylamine] + Clc1ccccc1
303.15 K
Settings	mass density [kg/m3]	viscosity [mPa·s]
x1 = 0.0118	1089.87 ± 0.65	0.709 ± 0.01
x1 = 0.0193	1086.26 ± 0.64	0.702 ± 0.01
x1 = 0.0299	1081.32 ± 0.63	0.694 ± 0.01
x1 = 0.0415	1075.87 ± 0.62	0.685 ± 0.01
x1 = 0.0493	1072.21 ± 0.61	0.677 ± 0.01
x1 = 0.0595	1067.48 ± 0.6	0.672 ± 0.01
x1 = 0.071	1062.15 ± 0.59	0.664 ± 0.009
x1 = 0.0792	1058.37 ± 0.59	0.658 ± 0.009
x1 = 0.0893	1053.74 ± 0.58	0.652 ± 0.009
x1 = 0.0994	1049.13 ± 0.57	0.645 ± 0.009

CCN(CC)CC [triethylamine] + O=[N+]([O-])c1ccccc1
303.15 K
Settings	mass density [kg/m3]	viscosity [mPa·s]
x1 = 0.0113	1186.81 ± 0.81	1.59 ± 0.021
x1 = 0.0201	1181.7 ± 0.79	1.569 ± 0.021
x1 = 0.0288	1176.68 ± 0.78	1.547 ± 0.02
x1 = 0.0404	1169.97 ± 0.77	1.521 ± 0.02
x1 = 0.0506	1164.25 ± 0.76	1.499 ± 0.02
x1 = 0.0601	1158.7 ± 0.75	1.48 ± 0.02
x1 = 0.0688	1153.74 ± 0.74	1.466 ± 0.019
x1 = 0.0819	1146.33 ± 0.72	1.44 ± 0.019
x1 = 0.091	1141.21 ± 0.71	1.422 ± 0.019
x1 = 0.1005	1136.48 ± 0.7	1.407 ± 0.019
